The Kinase Knowledgebase extract (Sharma et al. 2016)

Target: EGFR (human) (UniProt P00533)
Settings: kb

Sequence of EGFR (human) (P00533 whole entry, looked up): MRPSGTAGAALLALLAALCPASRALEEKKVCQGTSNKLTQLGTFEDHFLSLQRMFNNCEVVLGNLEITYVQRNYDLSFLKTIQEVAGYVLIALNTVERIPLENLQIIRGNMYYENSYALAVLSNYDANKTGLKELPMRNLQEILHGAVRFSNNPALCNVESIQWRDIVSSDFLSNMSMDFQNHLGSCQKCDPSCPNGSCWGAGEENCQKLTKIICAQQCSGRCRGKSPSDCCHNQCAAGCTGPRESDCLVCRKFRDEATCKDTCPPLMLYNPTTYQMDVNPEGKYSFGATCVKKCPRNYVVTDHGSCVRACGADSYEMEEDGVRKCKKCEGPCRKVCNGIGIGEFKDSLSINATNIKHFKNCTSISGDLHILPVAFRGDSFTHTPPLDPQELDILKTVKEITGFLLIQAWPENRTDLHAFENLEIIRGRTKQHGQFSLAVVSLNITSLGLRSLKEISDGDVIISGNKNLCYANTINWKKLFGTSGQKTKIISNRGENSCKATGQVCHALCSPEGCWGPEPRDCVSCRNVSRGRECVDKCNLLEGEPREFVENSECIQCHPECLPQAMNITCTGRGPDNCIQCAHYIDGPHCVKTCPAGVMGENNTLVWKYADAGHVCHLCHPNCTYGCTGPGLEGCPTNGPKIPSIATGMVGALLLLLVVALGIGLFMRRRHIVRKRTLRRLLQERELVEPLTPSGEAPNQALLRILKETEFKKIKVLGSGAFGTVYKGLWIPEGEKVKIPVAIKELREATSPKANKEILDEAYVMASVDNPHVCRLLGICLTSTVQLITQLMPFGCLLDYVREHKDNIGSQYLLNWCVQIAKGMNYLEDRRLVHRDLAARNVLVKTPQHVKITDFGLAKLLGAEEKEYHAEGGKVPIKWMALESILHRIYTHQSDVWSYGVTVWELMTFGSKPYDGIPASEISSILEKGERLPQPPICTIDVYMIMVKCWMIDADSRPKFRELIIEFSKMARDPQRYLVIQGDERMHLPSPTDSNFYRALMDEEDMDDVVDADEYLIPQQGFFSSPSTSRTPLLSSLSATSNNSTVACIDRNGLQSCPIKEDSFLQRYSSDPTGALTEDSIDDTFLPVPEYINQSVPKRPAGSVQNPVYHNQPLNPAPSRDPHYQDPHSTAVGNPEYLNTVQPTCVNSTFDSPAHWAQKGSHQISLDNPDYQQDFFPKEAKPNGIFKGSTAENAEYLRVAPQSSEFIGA

COc1cc(OC[C@@H]2CCCN2C(=O)CN2CCCC2)c2c(Nc3ccc(F)c(Cl)c3)ncnc2c1
IC50: 130 nM

COc1cc(OC[C@@H]2C[C@H](O)CN2C(=O)CN(C)C)c2c(Nc3ccc(F)c(Cl)c3)ncnc2c1
IC50: 112 nM

COc1cc(OC[C@@H]2CCCN2C(=O)CN(C)C)c2c(Nc3ccc(F)c(Cl)c3)ncnc2c1
IC50: 141 nM

COCC(=O)N1C[C@@H](O)C[C@@H]1COc1cc(OC)cc2ncnc(Nc3ccc(F)c(Cl)c3)c12
IC50: 288 nM

O=C(CO)N1CCC[C@@H]1COc1cc(OCCO)cc2ncnc(Nc3ccc(F)c(Cl)c3)c12
IC50: 128 nM

COc1cc(OC[C@H]2CCCN2C(=O)CO)c2c(Nc3ccc(F)c(Cl)c3)ncnc2c1
IC50: 91 nM

COc1cc(OC[C@H]2C[C@@H](O)CN2C(=O)CO)c2c(Nc3ccc(F)c(Cl)c3)ncnc2c1
IC50: 118 nM

COc1cc(OC[C@H]2CCCN2C(C)=O)c2c(Nc3ccc(F)c(Cl)c3)ncnc2c1
IC50: 28 nM

COc1cc(OC[C@H]2CCCN2C(=O)CN(C)C)c2c(Nc3ccc(F)c(Cl)c3)ncnc2c1
IC50: 138 nM

COc1cc(OC[C@@H]2C[C@@H](O)CN2C(=O)CO)c2c(Nc3ccc(F)c(Cl)c3)ncnc2c1
IC50: 156 nM

CCOCCOc1cc(OC[C@H]2CCCN2C(=O)CO)c2c(Nc3ccc(F)c(Cl)c3)ncnc2c1
IC50: 99 nM

COc1cc(OC[C@H]2C[C@H](O)CN2C(C)=O)c2c(Nc3ccc(F)c(Cl)c3)ncnc2c1
IC50: 75 nM
